According to patent publication US11447466B2, “Substituted indole compounds useful as inhibitors of TLR7/8/9” (BRISTOL-MYERS SQUIBB COMPANY, priority 2017, dated 2022):
pIC50: −log10 of the molar value.

What was measured:
Type in all cases: cell-based
[1] = target: T1, human TLR7 (Homo sapiens, UniProt Q9NYK1); assay: TLR7 inhibition reporter assay (HEK-Blue SEAP reporter, gardiquimod stimulation); conditions: HEK-Blue cells overexpressing human TLR7, SEAP reporter, gardiquimod 7.5 μM, 22 hour incubation
T1 construct: host or cells: HEK-Blue cells
T1 sequence (Q9NYK1 27-1049): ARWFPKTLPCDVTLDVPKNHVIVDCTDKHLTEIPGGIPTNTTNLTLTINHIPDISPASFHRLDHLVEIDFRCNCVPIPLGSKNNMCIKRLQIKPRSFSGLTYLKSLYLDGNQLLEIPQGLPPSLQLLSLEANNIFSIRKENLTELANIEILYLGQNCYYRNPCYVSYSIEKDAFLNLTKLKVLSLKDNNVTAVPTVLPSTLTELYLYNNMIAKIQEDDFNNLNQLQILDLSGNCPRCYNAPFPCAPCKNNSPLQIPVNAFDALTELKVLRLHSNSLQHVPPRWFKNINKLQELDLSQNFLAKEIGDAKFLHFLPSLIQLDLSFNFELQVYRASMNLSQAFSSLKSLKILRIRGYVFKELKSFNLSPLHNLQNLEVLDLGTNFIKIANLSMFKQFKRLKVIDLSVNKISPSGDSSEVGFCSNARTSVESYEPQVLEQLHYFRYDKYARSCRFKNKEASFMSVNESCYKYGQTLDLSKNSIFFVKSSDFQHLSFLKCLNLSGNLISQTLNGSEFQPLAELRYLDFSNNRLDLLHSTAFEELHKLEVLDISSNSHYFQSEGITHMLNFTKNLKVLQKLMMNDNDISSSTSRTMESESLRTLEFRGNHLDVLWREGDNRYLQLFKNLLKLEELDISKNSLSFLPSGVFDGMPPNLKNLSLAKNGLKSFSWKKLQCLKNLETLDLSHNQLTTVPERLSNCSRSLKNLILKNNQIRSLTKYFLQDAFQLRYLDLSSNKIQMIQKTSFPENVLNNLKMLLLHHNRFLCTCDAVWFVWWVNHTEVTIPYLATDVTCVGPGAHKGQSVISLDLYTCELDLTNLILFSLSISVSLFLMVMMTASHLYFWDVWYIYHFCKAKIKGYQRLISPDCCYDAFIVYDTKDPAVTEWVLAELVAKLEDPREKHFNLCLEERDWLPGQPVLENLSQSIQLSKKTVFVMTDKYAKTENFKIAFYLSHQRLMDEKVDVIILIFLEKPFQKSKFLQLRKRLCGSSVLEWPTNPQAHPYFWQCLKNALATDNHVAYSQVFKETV
Outline: (§1)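 Screening used HEK-Blue cells overexpressing one human TLR (7, 8 or 9) and an IFN-β minimal promoter–NF-κB/AP-1 SEAP construct. Stimulation lasted 22 h at 37 °C with receptor-specific agonist: gardiquimod, R848 or ODN2006 at 7.5 μM, 15.9 μM and 5 nM.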

[2] = target: T2, human TLR9 (Homo sapiens, UniProt Q9NR96); assay: TLR9 inhibition reporter assay (HEK-Blue SEAP reporter, ODN2006 stimulation); conditions: HEK-Blue cells overexpressing human TLR9, SEAP reporter, ODN2006 5 nM, 22 hour incubation
T2 construct: host or cells: HEK-Blue cells
T2 sequence (Q9NR96 26-1032): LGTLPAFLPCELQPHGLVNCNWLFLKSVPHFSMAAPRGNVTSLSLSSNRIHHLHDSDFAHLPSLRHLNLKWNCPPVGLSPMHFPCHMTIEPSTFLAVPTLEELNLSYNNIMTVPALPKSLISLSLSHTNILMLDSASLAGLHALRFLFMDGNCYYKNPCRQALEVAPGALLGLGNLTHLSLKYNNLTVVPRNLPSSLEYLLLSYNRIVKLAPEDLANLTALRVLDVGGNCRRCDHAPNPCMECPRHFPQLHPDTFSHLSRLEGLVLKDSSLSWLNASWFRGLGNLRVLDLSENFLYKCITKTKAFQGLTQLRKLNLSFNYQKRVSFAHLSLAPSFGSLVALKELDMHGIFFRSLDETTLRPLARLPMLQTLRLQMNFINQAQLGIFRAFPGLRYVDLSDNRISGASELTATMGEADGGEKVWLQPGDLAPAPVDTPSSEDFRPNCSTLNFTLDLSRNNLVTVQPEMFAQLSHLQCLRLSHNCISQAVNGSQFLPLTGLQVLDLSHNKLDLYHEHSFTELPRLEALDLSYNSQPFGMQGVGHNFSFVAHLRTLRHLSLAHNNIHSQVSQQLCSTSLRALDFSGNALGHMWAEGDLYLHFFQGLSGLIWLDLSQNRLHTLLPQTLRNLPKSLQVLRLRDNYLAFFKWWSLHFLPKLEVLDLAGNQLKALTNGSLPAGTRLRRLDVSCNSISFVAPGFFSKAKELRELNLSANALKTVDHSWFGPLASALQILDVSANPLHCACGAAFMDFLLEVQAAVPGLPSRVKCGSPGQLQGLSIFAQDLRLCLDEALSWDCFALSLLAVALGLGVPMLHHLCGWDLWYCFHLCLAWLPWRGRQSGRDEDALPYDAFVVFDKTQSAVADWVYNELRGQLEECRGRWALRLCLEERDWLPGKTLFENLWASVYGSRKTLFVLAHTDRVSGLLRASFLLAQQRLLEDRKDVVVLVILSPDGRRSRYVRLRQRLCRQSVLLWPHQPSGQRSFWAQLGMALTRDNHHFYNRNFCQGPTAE
Outline: as §1

[3] = target: T3, human TLR8 (Homo sapiens, UniProt Q9NR97); assay: TLR8 inhibition reporter assay (HEK-Blue SEAP reporter, R848 stimulation); conditions: HEK-Blue cells overexpressing human TLR8, SEAP reporter, R848 15.9 μM, 22 hour incubation
T3 construct: host or cells: HEK-Blue cells
T3 sequence (Q9NR97 27-1041): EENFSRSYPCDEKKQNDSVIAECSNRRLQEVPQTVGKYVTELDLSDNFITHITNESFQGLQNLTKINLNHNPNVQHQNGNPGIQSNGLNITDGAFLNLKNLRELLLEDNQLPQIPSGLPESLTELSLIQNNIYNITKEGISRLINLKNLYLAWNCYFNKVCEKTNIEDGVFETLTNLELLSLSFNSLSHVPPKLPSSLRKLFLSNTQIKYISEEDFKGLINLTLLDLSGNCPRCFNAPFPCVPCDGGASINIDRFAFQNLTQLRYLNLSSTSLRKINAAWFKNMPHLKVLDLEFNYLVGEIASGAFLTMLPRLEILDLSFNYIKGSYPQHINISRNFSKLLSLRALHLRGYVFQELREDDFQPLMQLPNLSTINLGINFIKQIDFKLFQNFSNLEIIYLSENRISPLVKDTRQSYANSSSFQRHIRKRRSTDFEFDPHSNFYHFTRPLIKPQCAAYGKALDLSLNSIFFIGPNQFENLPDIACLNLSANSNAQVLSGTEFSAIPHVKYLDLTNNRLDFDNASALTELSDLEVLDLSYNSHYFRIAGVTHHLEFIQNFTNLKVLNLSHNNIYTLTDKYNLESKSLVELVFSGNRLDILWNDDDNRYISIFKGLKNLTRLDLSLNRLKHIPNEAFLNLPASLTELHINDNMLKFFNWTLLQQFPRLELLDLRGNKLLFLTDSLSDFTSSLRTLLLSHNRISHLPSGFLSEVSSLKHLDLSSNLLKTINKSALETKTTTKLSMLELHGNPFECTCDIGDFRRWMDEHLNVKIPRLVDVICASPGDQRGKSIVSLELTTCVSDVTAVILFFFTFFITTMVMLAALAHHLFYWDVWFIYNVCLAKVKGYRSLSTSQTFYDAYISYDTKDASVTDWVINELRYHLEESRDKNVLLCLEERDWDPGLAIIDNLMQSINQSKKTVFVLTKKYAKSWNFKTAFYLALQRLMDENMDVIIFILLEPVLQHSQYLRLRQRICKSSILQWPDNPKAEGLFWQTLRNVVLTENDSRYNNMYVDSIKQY
Outline: as §1

Row | Structure (SMILES) | pIC50 [1] | pIC50 [2] | pIC50 [3]
1 | CCCN1CCC(c2ccc3[nH]c(-c4cn(C)c(=O)c(-c5cnn(C)c5)c4C)c(C(C)C)c3c2)CC1 [Example 333, 5-(3-isopropyl-5-(1-propylpiperidin-4-yl)-1H-indol-2-yl)-1,4-dimethyl-3-(1-methyl-1H-pyrazol-4-yl)pyridin-2(1H)-one] | 7.04 | 5.52 | 7.95
2 | CCCN1CCC(c2ccc3[nH]c(-c4cc(-c5cnn(C)c5)c(=O)n(C)c4)c(C(C)C)c3c2)CC1 [Example 334, 5-(3-isopropyl-5-(1-propylpiperidin-4-yl)-1H-indol-2-yl)-1-methyl-3-(1-methyl-1H-pyrazol-4-yl) pyridin-2(1H)-one] | 8.07 | 6.31 | 9.10
3 | CCCN1CCC(c2ccc3[nH]c(-c4cc(-c5ccc(NC(C)=O)nc5)c(=O)n(C)c4)c(C(C)C)c3c2)CC1 [Example 335, N-(5′-(3-isopropyl-5-(1-propylpiperidin-4-yl)-1H-indol-2-yl)-1′-methyl-2′-oxo-1′,2′-dihydro-[3,3′-bipyridin]-6-yl)acetamide] | 8.62 | 6.28 | 8.23
4 | CCCN1CCC(c2ccc3[nH]c(-c4cc(-c5ccncc5)c(=O)n(C)c4)c(C(C)C)c3c2)CC1 [Example 336, 5-(3-isopropyl-5-(1-propylpiperidin-4-yl)-1H-indol-2-yl)-1-methyl-[3,4′-bipyridin]-2(1H)-one] | 7.99 | 6.26 | 8.92
5 | CCCN1CCC(c2ccc3[nH]c(-c4cc(-c5cnc(C)nc5)c(=O)n(C)c4)c(C(C)C)c3c2)CC1 [Example 337, 5-(3-isopropyl-5-(1-propylpiperidin-4-yl)-1H-indol-2-yl)-1-methyl-3-(2-methylpyrimidin-5-yl)pyridin-2(1H)-one] | 8.74 | 5.60 | 7.92
6 | CCCN1CCC(c2ccc3[nH]c(-c4cc(-c5cnc(C6CC6)nc5)c(=O)n(C)c4)c(C(C)C)c3c2)CC1 [Example 338, 3-(2-cyclopropylpyrimidin-5-yl)-5-(3-isopropyl-5-(1-propylpiperidin-4-yl)-1H-indol-2-yl)-1-methylpyridin-2(1H)-one] | 8.96 | 6.11 | 7.87
7 | CCCN1CCC(c2ccc3[nH]c(-c4cc(-c5cnc(C(F)(F)F)nc5)c(=O)n(C)c4)c(C(C)C)c3c2)CC1 [Example 339, 5-(3-isopropyl-5-(1-propylpiperidin-4-yl)-1H-indol-2-yl)-1-methyl-3-(2-(trifluoromethyl)pyrimidin-5-yl) pyridin-2(1H)-one] | 7.54 | 5.99 | 5.67
8 | CCCN1CCC(c2ccc3[nH]c(-c4cc(-c5cccc(OC)c5)c(=O)n(C)c4)c(C(C)C)c3c2)CC1 [Example 340, 5-(3-isopropyl-5-(1-propylpiperidin-4-yl)-1H-indol-2-yl)-3-(3-methoxyphenyl)-1-methylpyridin-2(1H)-one] | 8.35 | 5.92 | 7.78
9 | CCCN1CCC(c2ccc3[nH]c(-c4cc(-c5ccc(F)nc5)c(=O)n(C)c4)c(C(C)C)c3c2)CC1 [Example 341, 6′-fluoro-5-(3-isopropyl-5-(1-propylpiperidin-4-yl)-1H-indol-2-yl)-1-methyl-[3,3′-bipyridin]-2(1H)-one] | 7.79 | 6.15 | 8.37
10 | CC(C)c1c(-c2cc(-c3ccc(F)nc3)c(=O)n(C)c2)[nH]c2ccc(C3CCN(C(C)C)CC3)cc12 [Example 342, 6′-fluoro-5-(3-isopropyl-5-(1-isopropylpiperidin-4-yl)-1H-indol-2-yl)-1-methyl-[3,3′-bipyridin]-2(1H)-one] | 7.89 | 5.48 | 7.80
11 | Cc1cc(-c2cc(-c3[nH]c4ccc(C5CCN(C(C)C)CC5)cc4c3C(C)C)cn(C)c2=O)cnc1F [Example 343, 6′-fluoro-5-(3-isopropyl-5-(1-isopropylpiperidin-4-yl)-1H-indol-2-yl)-1,5′-dimethyl-[3,3′-bipyridin]-2(1H)-one] | 7.74 | 5.93 | 7.85
12 | Cc1ncccc1-c1cc(-c2[nH]c3ccc(C4CCN(C(C)C)CC4)cc3c2C(C)C)cn(C)c1=O [Example 344, 5-(3-isopropyl-5-(1-isopropylpiperidin-4-yl)-1H-indol-2-yl)-1,2′-dimethyl-[3,3′-bipyridin]-2(1H)-one] | 7.94 | 6.49 | 7.58
13 | COCc1cc(-c2[nH]c3ccc(C4CCN(C5CCOCC5)CC4)cc3c2C(C)C)cn(C)c1=O [Example 345, 5-(3-isopropyl-5-(1-(tetrahydro-2H-pyran-4-yl)piperidin-4-yl)-1H-indol-2-yl)-3-(methoxymethyl)-1-methylpyridin-2(1H)-one] | 7.95 | 5.15 | 7.77
